Data from PubChem BioAssay (NCI).
Several values for one entry are separate records, joined by “and”; a condition that tells them apart may be missing. Equal entries are not always repeated.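 96-well plates; 48 h exposure; 5 concentrations. Endpoints by linear interpolation between flanking doses. Not reached: highest tested concentration assigned. GI50: concentration for 50% inhibition of growth. TGI marks complete inhibition of growth.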

Legend:
Assay in all cases: NCI anticancer screen, dose series, 48 h
LOX IMVI melanoma = system: LOX IMVI melanoma
HOP-92 NSCLC = system: HOP-92 NSCLC
OVCAR-3 ovarian = system: OVCAR-3 ovarian
UACC-257 melanoma = system: UACC-257 melanoma
HT29 colon = system: HT29 colon
NCI-H23 lung = system: NCI-H23 lung
T-47D breast = system: T-47D breast
MDA-MB-435 = system: MDA-MB-435
K-562 leukemia = system: K-562 leukemia

SMILES | TGI (LOX IMVI melanoma) | TGI (HOP-92 NSCLC) | TGI (OVCAR-3 ovarian) | TGI (UACC-257 melanoma) [µM] | TGI (HT29 colon) [µM] | TGI (NCI-H23 lung) [µM] | GI50 (LOX IMVI melanoma) | GI50 (HOP-92 NSCLC) [µM] | GI50 (T-47D breast) [µM] | TGI (T-47D breast) [µM] | GI50 (OVCAR-3 ovarian) | GI50 (UACC-257 melanoma) [µM] | GI50 (HT29 colon) | GI50 (MDA-MB-435) [µM] | TGI (MDA-MB-435) [µM] | GI50 (K-562 leukemia) | TGI (K-562 leukemia) [µM] | GI50 (NCI-H23 lung) [µM]
CCOC(=O)C(c1ccsc1)P(=O)(OCC)OCC (centres undefined) | 19.3 µM | 46.4 µM | 26.9 µM | 33.2 | 39.7 | 36.7 | – | – | – | – | – | – | – | – | – | – | – | –
Cc1nc2ccccc2c(/C=C/c2ccc(C(F)(F)F)cc2)c1C(=O)/C=C/c1ccccc1 | 2.94 µM | 2.98 µM | 2.52 µM | 3.17 | 6.05 | – | 1.58 µM | 1.32 | 1.07 | 3.13 | 1.2 µM | 1.61 | 1.04 µM | – | – | – | – | –
O=[N+]([O-])c1cc2c(ccc3ccccc32)o1 | 0.487 µM | 0.774 µM | 4.64 µM | 0.417 | 1.8 | 2.03 | 0.166 µM | 0.257 | 1.57 | 31.9 | 1.31 µM | 0.188 | 0.307 µM | 0.158 | 0.35 | 0.376 µM | 9.01 | 0.331
CC(=O)CC(=O)Nc1ccc(OS(N)(=O)=O)cc1 | – | > 100 µM | > 100 µM | > 100 | > 100 | > 100 | – | – | – | – | – | – | – | – | – | – | > 100 | –
NNC(=S)N/N=C(\c1nc2ccc(Cl)cc2[nH]c1=O)C(O)c1cccc([N+](=O)[O-])c1 (centres undefined) | > 56.6 µM | > 100 µM | > 100 µM | > 100 | > 50.9 | > 61.9 | – | – | – | – | – | – | – | – | – | – | > 70.2 | –
CN1C=C(C(N)=O)Cc2ccsc21 | – | > 100 µM | > 100 µM | > 100 | > 100 | > 100 | – | – | – | – | – | – | – | – | – | – | > 100 | –
CC[C@@]1(O)C(=O)OCc2c1cc1n(c2=O)Cc2cc3c(N)c(OC)ccc3nc2-1 | 0.151 µM | 1.85 µM | 1.65 µM | 2.15 | > 100 | 0.142 | 0.0216 µM | 0.185 | – | – | 0.328 µM | 0.219 | 0.205 µM | – | – | 0.152 µM | – | 0.0213
N/N=C1\C(=O)N(c2ccc(Cl)c(Cl)c2)C(=O)C1C(=O)Nc1ccc(Cl)c(Cl)c1 (centres undefined) | – | > 100 µM | > 100 µM | > 100 | > 100 | > 100 | – | – | – | – | – | – | – | – | – | – | > 100 | –
O=[N+]([O-])C(=C1c2ccccc2-c2ccccc21)[N+](=O)[O-] | > 100 µM | – | > 100 µM | > 100 | > 100 | > 10 | – | – | – | – | – | – | – | – | – | – | > 100 | –
CCCCCCCCCCCCNC(=S)OCCCC | 35.8 µM | > 100 µM | – | > 100 | > 100 | > 100 | – | – | – | – | – | – | – | – | – | – | > 100 | –
O=C1CC2=CCCC2O1 (centres undefined) | > 100 µM | > 100 µM | > 100 µM | > 100 | > 100 | > 100 | – | – | – | – | – | – | – | – | – | – | > 100 | –
COc1cc(Br)c(C=Nc2cccc3ccc(OS(=O)(=O)c4ccc([N+](=O)[O-])cc4)cc23)cc1OC | > 100 µM | > 100 µM | > 100 µM | > 100 | > 100 | > 100 | – | – | – | – | – | – | – | – | – | – | – | –
COc1ccc(-c2cc(-c3ccco3)c(C#N)c(=O)n2C2OC(COC(C)=O)C(OC(C)=O)C(OC(C)=O)C2OC(C)=O)cc1 (centres undefined) | > 100 µM and 59.6 µM | > 100 µM and 62.7 µM | > 100 µM and 44.3 µM | > 100 | > 100 | > 100 | 59.4 µM and 14.1 µM | – | – | – | > 100 µM and 18.1 µM | – | > 100 µM and 28.6 µM | – | – | 48.1 µM and 8.84 µM | > 100 | –
CC(C)CC1CC2C(=O)N(c3ccccc3)C(=O)C2c2[nH]c3ccccc3c21 (centres undefined) | > 87.8 µM | 41.8 µM | 42.7 µM | > 100 | > 100 | > 80.8 | – | – | – | – | – | – | – | – | – | – | > 42.7 | –
CC1(C)CCOC(Sc2ccccc2)C1 (centres undefined) | > 100 µM | – | > 100 µM | > 100 | – | > 100 | – | – | – | – | – | – | – | – | – | – | > 100 | –
COC(=O)N1C=CC2=C(C)C3Nc4ccccc4C3C(C)=C2C1 (centres undefined) | 20.1 µM | 10.1 µM | 3.69 µM | 14.3 | > 100 | > 100 | – | – | – | – | – | – | – | – | – | – | 14.5 | –
COc1ccc(/C(=N/O)c2cc(F)c(F)c(OC)c2F)cc1O | > 100 µM | > 100 µM | 16.5 µM | – | 65.4 | > 100 | 0.605 µM | 18.9 | 0.53 | 72.4 | 0.345 µM | – | 3.6 µM | – | – | 0.271 µM | > 100 | 1.9
CC1Nc2ccccc2NC1C=C(C#N)C#N (centres undefined) | 25.5 µM | 28.4 µM | 29.4 µM | – | 36.9 | 34.6 | – | – | – | – | – | – | – | – | – | – | 48.5 | –
